# Experimental data as given in ChEMBL document CHEMBL1128815, “Uracil-based angiotensin II receptor antagonists” (Bioorg Med Chem Lett, 1995).
# Columns and labels:
# [1] = target: T1, Type-1 angiotensin II receptor B (Rattus norvegicus, UniProt P29089); assay: Tested for binding affinity against angiotensin II receptor in rat adrenal cortex; type: tissue-based
# T1 sequence (P29089 whole entry): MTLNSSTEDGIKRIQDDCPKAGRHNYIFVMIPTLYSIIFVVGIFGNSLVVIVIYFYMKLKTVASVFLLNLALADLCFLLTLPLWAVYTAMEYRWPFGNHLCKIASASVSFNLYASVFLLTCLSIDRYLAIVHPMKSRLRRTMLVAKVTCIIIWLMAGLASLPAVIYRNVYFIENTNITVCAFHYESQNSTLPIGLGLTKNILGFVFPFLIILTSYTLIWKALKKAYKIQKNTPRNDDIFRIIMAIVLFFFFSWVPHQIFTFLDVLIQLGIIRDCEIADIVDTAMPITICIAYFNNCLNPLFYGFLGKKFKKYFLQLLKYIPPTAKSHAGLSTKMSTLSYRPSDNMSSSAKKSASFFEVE
# [2] = target: T2, Type-1 angiotensin II receptor (Bos taurus, UniProt P25104); assay: Tested for binding affinity against angiotensin II receptor in bovine adrenal cortex; type: tissue-based
# T2 sequence (P25104 whole entry): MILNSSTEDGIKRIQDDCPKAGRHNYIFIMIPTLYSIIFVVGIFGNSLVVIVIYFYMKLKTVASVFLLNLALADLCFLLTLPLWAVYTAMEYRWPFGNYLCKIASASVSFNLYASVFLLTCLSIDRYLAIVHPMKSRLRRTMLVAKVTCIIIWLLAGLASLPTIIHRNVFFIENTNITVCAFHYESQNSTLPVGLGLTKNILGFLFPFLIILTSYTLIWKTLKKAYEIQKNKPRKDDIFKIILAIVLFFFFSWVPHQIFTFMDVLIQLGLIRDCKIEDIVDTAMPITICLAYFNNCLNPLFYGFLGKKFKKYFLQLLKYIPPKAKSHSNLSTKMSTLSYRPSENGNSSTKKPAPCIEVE
SMILES,IC50 [1],IC50 [2]
CCCCc1cc(=O)n(Cc2ccccc2C(=O)OC)c(=O)n1Cc1ccc(-c2ccccc2-c2nnn[nH]2)cc1,2.4 nM,27 nM
CCCc1c(C)c(=O)n(C)c(=O)n1Cc1ccc(-c2ccccc2-c2nnn[nH]2)cc1,,6600 nM
CCCCn1c(=O)cc(CCC)n(Cc2ccc(-c3ccccc3-c3nn[nH]n3)cc2)c1=O,,16 nM
CCCc1cc(=O)n(C)c(=O)n1Cc1ccc(-c2ccccc2-c2nn[nH]n2)cc1,17 nM,55 nM
CCCc1cc(=O)n(CCNC(C)=O)c(=O)n1Cc1ccc(-c2ccccc2-c2nnn[nH]2)cc1,3.4 nM,40 nM
Cn1c(=O)cc(C2CC2)n(Cc2ccc(-c3ccccc3-c3nn[nH]n3)cc2)c1=O,,2400 nM
CCCc1cc(=O)n(CC(=O)N(C)C)c(=O)n1Cc1ccc(-c2ccccc2-c2nn[nH]n2)cc1,0.65 nM,9.3 nM
CCc1cc(=O)n(C)c(=O)n1Cc1ccc(-c2ccccc2-c2nnn[nH]2)cc1,,1000 nM
CCCc1cc(=O)n(Cc2ccccc2)c(=O)n1Cc1ccc(-c2ccccc2-c2nn[nH]n2)cc1,,25 nM
CCCCc1cc(=O)n(C)c(=O)n1Cc1ccc(-c2ccccc2-c2nn[nH]n2)cc1,4.5 nM,44 nM
CCCCc1nc(Cl)c(CO)n1Cc1ccc(-c2ccccc2-c2nn[nH]n2)cc1 [LOSARTAN],,160 nM
CCCc1cc(=O)[nH]c(=O)n1Cc1ccc(-c2ccccc2-c2nn[nH]n2)cc1,4.3 nM,100 nM
CCCc1cc(=O)n(CCNC(=O)NC2CCCCC2)c(=O)n1Cc1ccc(-c2ccccc2-c2nnn[nH]2)cc1,1.4 nM,23 nM
CCCc1cc(=O)n(Cc2ccccc2C(=O)OC)c(=O)n1Cc1ccc(-c2ccccc2-c2nnn[nH]2)cc1,2.3 nM,20 nM
C=CCn1c(=O)cc(CCC)n(Cc2ccc(-c3ccccc3-c3nnn[nH]3)cc2)c1=O,3.3 nM,34 nM
CCCCc1cc(=O)n2nc(-c3ccccc3)nc2n1Cc1ccc(-c2ccccc2-c2nn[nH]n2)cc1,83 nM,520 nM
CCCc1cc2ncnn2c(=O)n1Cc1ccc(-c2ccccc2-c2nnn[nH]2)cc1,6.2 nM,62 nM
